According to patent US11925655B2, “FAP-activated therapeutic agents, and uses related thereto” (Bach Biosciences, LLC, priority 2014, dated 2024):
Read-outs that look alike come from different tables or passages of the source.

What was measured:
FAP = molecular target: T1, FAP (Homo sapiens, UniProt Q12884); assay: Specificity of activation: digest with FAP; format: biochemical; settings: 100 μM prodrug, 24 hours at 37° C.
T1 sequence (Q12884 1-760): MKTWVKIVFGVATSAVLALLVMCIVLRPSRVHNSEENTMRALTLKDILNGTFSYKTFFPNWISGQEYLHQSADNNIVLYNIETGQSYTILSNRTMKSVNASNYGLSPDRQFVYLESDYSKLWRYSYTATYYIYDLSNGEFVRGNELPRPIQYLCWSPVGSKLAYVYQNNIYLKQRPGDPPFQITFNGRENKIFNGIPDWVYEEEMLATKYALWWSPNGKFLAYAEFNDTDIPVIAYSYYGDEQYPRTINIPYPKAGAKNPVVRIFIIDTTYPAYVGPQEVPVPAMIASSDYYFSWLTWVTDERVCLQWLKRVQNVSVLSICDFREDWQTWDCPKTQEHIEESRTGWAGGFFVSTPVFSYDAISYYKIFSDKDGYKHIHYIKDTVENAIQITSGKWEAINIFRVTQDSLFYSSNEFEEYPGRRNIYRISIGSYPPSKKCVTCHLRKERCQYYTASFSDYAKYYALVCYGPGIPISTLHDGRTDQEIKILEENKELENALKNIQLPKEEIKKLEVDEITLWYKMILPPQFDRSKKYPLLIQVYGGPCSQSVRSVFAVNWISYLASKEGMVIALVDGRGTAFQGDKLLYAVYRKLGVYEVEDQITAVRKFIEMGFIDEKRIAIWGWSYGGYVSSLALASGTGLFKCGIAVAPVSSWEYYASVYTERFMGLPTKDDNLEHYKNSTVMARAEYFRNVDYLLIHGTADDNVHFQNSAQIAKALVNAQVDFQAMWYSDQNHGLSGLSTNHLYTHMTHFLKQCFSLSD
Method: (§1) Total doxorubicin was measured for each assay.

PREP = molecular target: T2, PREP (Homo sapiens, UniProt P48147); assay: Specificity of activation: digest with PREP; format: biochemical; settings: 100 μM prodrug, 24 hours at 37° C.
T2 sequence (P48147 1-710): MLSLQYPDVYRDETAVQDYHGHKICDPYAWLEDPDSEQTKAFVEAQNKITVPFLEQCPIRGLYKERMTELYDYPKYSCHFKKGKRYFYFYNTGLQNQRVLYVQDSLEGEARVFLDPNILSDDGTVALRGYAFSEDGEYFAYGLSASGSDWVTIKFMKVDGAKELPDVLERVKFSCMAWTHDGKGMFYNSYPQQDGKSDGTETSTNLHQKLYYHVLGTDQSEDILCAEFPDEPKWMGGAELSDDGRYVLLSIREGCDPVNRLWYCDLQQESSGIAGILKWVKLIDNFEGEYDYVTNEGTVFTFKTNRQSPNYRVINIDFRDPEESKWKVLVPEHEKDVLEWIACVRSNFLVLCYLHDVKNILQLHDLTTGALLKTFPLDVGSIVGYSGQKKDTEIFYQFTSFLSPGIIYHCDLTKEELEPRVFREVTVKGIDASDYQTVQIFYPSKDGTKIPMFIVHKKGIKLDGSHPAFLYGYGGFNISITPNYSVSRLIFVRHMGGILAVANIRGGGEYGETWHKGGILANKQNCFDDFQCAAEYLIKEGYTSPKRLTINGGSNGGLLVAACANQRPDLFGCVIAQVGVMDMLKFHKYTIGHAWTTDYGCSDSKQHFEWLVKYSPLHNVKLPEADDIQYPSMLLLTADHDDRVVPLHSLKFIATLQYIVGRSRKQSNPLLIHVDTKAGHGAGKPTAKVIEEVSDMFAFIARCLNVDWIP
Method: as §1

[1] = molecular target: dipeptidyl peptidase IV (DPP IV) (Homo sapiens, UniProt P27487); assay: Specificity of activation: digest with DPP IV; format: biochemical; settings: 100 μM prodrug, 24 hours at 37° C.
Sequence of dipeptidyl peptidase IV (DPP IV) (P27487 whole entry, species assumed): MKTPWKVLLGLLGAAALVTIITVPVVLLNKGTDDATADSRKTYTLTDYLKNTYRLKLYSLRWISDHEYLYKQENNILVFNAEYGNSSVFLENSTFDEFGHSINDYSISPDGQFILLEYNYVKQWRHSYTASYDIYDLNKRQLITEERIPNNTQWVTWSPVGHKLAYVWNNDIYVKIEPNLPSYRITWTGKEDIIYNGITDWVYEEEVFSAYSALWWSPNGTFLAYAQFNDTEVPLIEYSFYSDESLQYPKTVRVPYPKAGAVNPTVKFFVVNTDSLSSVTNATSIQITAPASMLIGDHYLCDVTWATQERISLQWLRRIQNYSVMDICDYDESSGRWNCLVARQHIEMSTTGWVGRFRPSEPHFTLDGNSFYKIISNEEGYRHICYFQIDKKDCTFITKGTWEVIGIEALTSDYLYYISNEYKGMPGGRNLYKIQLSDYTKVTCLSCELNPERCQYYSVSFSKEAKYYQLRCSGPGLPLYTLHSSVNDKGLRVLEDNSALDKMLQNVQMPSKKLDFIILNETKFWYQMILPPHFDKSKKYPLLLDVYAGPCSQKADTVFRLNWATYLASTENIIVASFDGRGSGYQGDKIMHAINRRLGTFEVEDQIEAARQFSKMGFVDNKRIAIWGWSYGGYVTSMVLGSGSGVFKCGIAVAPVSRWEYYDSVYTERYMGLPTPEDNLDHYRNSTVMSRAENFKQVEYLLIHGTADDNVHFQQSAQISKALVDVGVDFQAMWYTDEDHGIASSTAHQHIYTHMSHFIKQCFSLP
Method: as §1

[2] = Stability in mouse muscle lysate; settings: 100 μM prodrug, 37° C., 12 h
HEK-mFAP cells = assay: CellTiter-Blue cell viability assay with HEK-mFAP cells; format: cell-based, human; settings: Homo sapiens, 5107DOX assay, 72 hour incubation
CT26 cells = assay: CellTiter-Blue cell viability assay with CT26 cells; format: cell-based; settings: Mus musculus

EC50 (CT26 cells; read-out: EC50 (prodrug + 50 nM FAP)) [µM]	EC50 (CT26 cells; read-out: EC50 (prodrug + 50 nM PREP)) [µM]	EC50 (CT26 cells; read-out: EC50 (prodrug alone)) [µM]	doxorubicin released by FAP, relative amount (FAP; as much doxorubicin as from the other prodrugs)	Compound	doxorubicin released by FAP (FAP)	doxorubicin released by PREP (PREP)	doxorubicin released by DPP IV [1]	doxorubicin released in mouse muscle lysate [2]	EC50 (HEK-mFAP cells; read-out: EC50 (prodrug + 100 uM 5057-2)) [µM]	EC50 (HEK-mFAP cells; read-out: EC50 (prodrug alone)) [µM]
				COc1cccc2c1C(=O)c1c(O)c3c(c(O)c1C2=O)C[C@@](O)(C(=O)CO)C[C@@H]3O[C@H]1C[C@H](NC(=O)[C@@H]2CCCN2C(=O)CNC(=O)OCc2ccccc2)[C@H](O)[C@H](C)O1 [z-GP-DOX, reference compound]	A similar amount of doxorubicin was released	A similar amount of doxorubicin was released	essentially none	a large amount of doxorubicin		
				COc1cccc2c1C(=O)c1c(O)c3c(c(O)c1C2=O)C[C@@](O)(C(=O)CO)C[C@@H]3OC1CC(NC(=O)[C@@H]2CC(F)(F)CN2C(=O)[C@@H](C)NC(=O)c2ccnc3ccccc23)C(O)C(C)O1 (stereo partly drawn) [Compound 5107DOX]					> 100	0.94
26	210	190	about 15%	COc1cccc2c1C(=O)c1c(O)c3c(c(O)c1C2=O)C[C@@](O)(C(=O)CO)C[C@@H]3OC1CC(NC(=O)[C@@H]2CCCN2C(=O)[C@@H](C)NC(=O)[C@H](CO)NC(=O)CCC(=O)O)C(O)C(C)O1 (stereo partly drawn) [Compound 3996DOX]		essentially none	essentially none			
